{"source": "patent US20170008928A1", "about": "“NOVEL PEPTIDES AND PEPTIDE DERIVATIVES AND USES THEREOF” (Novo Nordisk A/S, priority 2015, published 2017)", "key": {"[1]": {"molecular_target": "T1, human cholecystokinin-1 receptor (CCK-1R) (Homo sapiens, UniProt P32238)", "T1 construct": "host or cells: 1321-N1 cells", "T1 sequence (P32238 1-428)": "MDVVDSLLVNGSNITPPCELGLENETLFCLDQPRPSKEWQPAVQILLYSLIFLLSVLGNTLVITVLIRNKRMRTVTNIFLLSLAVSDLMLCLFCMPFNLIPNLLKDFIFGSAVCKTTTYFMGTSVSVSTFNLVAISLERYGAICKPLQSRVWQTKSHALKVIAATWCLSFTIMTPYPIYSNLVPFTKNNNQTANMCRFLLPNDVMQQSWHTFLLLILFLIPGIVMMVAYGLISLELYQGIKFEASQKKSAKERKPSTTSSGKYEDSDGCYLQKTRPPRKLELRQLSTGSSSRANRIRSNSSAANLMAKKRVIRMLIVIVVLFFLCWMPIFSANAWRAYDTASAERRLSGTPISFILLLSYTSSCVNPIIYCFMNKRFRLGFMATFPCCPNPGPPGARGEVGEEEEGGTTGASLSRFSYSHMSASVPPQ", "experiment": "In vitro potency on CCK-1R, whole cell functional assay (IP1 accumulation, IP-One HTRF)", "format": "cell-based"}, "[2]": {"experiment": "Pharmacokinetic (PK) studies in mini-pig, i.v.", "format": "in vivo", "conditions": "i.v. 5 nmol/kg, female Göttingen mini-pigs, harmonic mean", "method": "The purpose of this study is to determine the protraction in vivo of a number of CCK derivatives of the invention after intravenous (i.v.) administration to mini-pigs, i.e. the prolongation of their time in the body and thereby their time of action. This was done in pharmacokinetic (PK) studies, where the terminal half-life of the derivative in question was determined. By terminal half-life is generally meant the period of time it takes to halve a certain plasma concentration, measured after the initial distribution phase.\nThe derivatives of the compounds listed in Table 4 were subjected to PK studies as described in the following.\nFemale Göttingen mini-pigs obtained from Ellegaard Göttingen Minipigs (Dalmose, Denmark) at approximately 6 months of age and weighing approximately 17 kg were used in the studies. […] Additional blood samples were collected for the derivatives of Examples 2, 4, 7, 8, and 9 at the following time points: 5, 12, 22, 28 and 144 hours. The blood samples were collected into test tubes containing EDTA buffer for stabilisation and kept on ice for max. 20 minutes before centrifugation. The centrifugation procedure to separate plasma was: 4° C., approx. 2500 g for 10 minutes. Plasma was collected and immediately transferred to Micronic tubes stored at −20° C. until assayed.\nPlasma was pipetted into Micronic tubes on dry ice, and kept at −20° C. until analysed for plasma concentration of the respective CCK derivative using LC-MS. The plasma samples (including standard curve samples used for quantitation of unknowns and prepared from blank plasma spiked with CCK compound at a concentration range of 0.5-2000 nM for the compounds of Examples 3, 5, 6 or 0.5-1000 nM for the remaining Example compounds) were protein precipitated using three volumes of methanol and centrifuged (16000×g, 4° C., 20 min). The supernatants were injected into the chromatographic system (TurboFlow Transcend 1250 & 10 valve VIM, Thermo Fisher Scientific) which consisted of an initial Turboflow Cyclone purification column 0.5×50 mm (Thermo Fischer Scientific) and an eluting Aeris peptide 3.6 μm XB—C18 column 2.1×50 mm (Phenomenex) kept at 60° C.\nThe CCK derivatives of Examples 2-9 were eluted using LC-MS method I: A chromatographic gradient system with mobile phases consisting of water with 0.1 v/v % formic acid (mobile phase A) and water/acetonitrile 10/90 v/v with 0.1 v/v % formic acid (mobile phase B). The 2 minute gradient started at 60% mobile phase B and ended at 100% mobile phase B with a flow of 0.4 mL/min. The CCK derivatives were detected and quantified after on-line infusion of the LC flow to the LTQ OrbiTrap Discovery mass spectrometer (Thermo Fischer Scientific) equipped with an electrospray interface operated in negative mode, ESI− (Sheath gas flow rate at 40, Aux gas flow rate at 30, Sweep gas flow rate at 2, Spray voltage at 2.8 kV, Capillary temp. at 275° C., S-lens RF level at −125 and Heater temp. at 325° C.).\nThe remaining Example compounds were eluted using LC-MS method II: A chromatographic gradient system with mobile phases consisting of water with 1 v/v % formic acid (mobile phase A) and water/acetonitrile 10/90 v/v with 1 v/v % formic acid (mobile phase B). The initial 0.25 minute gradient started at 0% mobile phase B and ended at 70% mobile phase B followed by the second 2.2 minute gradient started at 70% mobile phase B and ended at 75% mobile phase B with a flow of 0.4 mL/min. These CCK derivatives were detected and quantified as described above except that the Spray voltage was 4.0 kV.\nIndividual plasma concentration-time profiles were analysed by a non-compartmental model in Phoenix v. 6.3 (Pharsight Inc., Mountain View, Calif., USA)."}}, "note": "Like-named read-outs stand apart in the source and are kept apart here. Starred links: 1 amine or outer side, 2 acyl side, 3 side chain; linkers in the order of their positions; H or OH if unused. Non-standard residues stand in square brackets, D forms with d. Residues, ends and D or L forms follow the SMILES beside them. *: point of attachment. Phe(4-CH2SO3H) = N[C@@H](Cc1ccc(CS(=O)(=O)O)cc1)C(=O)O; C20 diacid = O=C(O)CCCCCCCCCCCCCCCCCCC(=O)*; sY = N[C@@H](Cc1ccc(OS(=O)(=O)O)cc1)C(=O)O; C18 diacid = O=C(O)CCCCCCCCCCCCCCCCC(=O)*; γGlu = O=C(O)[C@H](CCC(=O)[*:2])N[*:1]; 1Nal = N[C@@H](Cc1cccc2ccccc12)C(=O)O; C14 diacid = O=C(O)CCCCCCCCCCCCC(=O)*; NMeF = CN[C@@H](Cc1ccccc1)C(=O)O; dNMeD = CN[C@H](CC(=O)O)C(=O)O; Nle = CCCC[C@H](N)C(=O)O; AEEA = NCCOCCOCC(=O)O", "data": [{"smiles": "CCCC[C@H](NC(=O)[C@H](Cc1c[nH]c2ccccc12)NC(=O)CNC(=O)[C@H](CC(C)C)NC(=O)[C@H](Cc1ccc(OS(=O)(=O)O)cc1)NC(=O)[C@H](CC(=O)O)NC(=O)[C@H](CO)NC(=O)[C@H](CO)NC(=O)CNC(=O)[C@H](CO)NC(=O)[C@H](CO)NC(=O)CNC(=O)CCCCCCCCCCCCCCCCC(=O)O)C(=O)N(C)[C@H](CC(=O)O)C(=O)N(C)[C@@H](Cc1ccccc1)C(N)=O", "note": "[Example 29, 17-Carboxyheptadecanoyl-Gly-Ser-Ser-Gly-Ser-Ser-Asp-sTyr-Leu-Gly-Trp-Nle-DMeAsp-MePhe-amide] ({C18 diacid}-GSSGSSD[sY]LGW[Nle][dNMeD][NMeF]-NH2)", "values": [{"measurement": "CCK-1R selectivity (EC50 (CCK-2R)/EC50 (CCK-1R))", "setting": "[1]; ratio of functional EC50 values, >1 = preference for CCK-1R", "value": 28}, {"measurement": "half-life", "setting": "[2]; minipig, plasma, iv, read-out: Plasma terminal half-life (T½) (converted)", "value": 119, "unit": "h"}]}, {"smiles": "CCCC[C@H](NC(=O)[C@H](Cc1ccc(OS(=O)(=O)O)cc1)NC(=O)[C@H](CC(=O)O)NC(=O)COCCOCCNC(=O)COCCOCCNC(=O)CC[C@H](NC(=O)CCCCCCCCCCCCCCCCC(=O)O)C(=O)O)C(=O)NCC(=O)N[C@@H](Cc1c[nH]c2ccccc12)C(=O)N[C@@H](CCCC)C(=O)N(C)[C@H](CC(=O)O)C(=O)N[C@@H](Cc1cccc2ccccc12)C(N)=O", "note": "[Example 2, 2-[2-[2-[[2-[2-[2-[[(4S)-4-Carboxy-4-(17-carboxyheptadecanoylamino)butanoyl]amino]ethoxy]ethoxy]acetyl]amino]ethoxy]ethoxy]acetyl-Asp-sTyr-Nle-Gly-Trp-Nle-DMeAsp-1Nal-amide] ({C18 diacid-γGlu-AEEA-AEEA}-D[sY][Nle]GW[Nle][dNMeD][1Nal]-NH2)", "values": [{"measurement": "Plasma terminal half-life (T½)", "setting": "[2]", "value": 140, "unit": "h"}]}, {"smiles": "CCCC[C@H](NC(=O)[C@H](Cc1c[nH]c2ccccc12)NC(=O)CNC(=O)[C@H](CC(C)C)NC(=O)[C@H](Cc1ccc(CS(=O)(=O)O)cc1)NC(=O)[C@H](CC(=O)O)NC(=O)COCCOCCNC(=O)COCCOCCNC(=O)CC[C@H](NC(=O)CCCCCCCCCCCCCCCCCCC(=O)O)C(=O)O)C(=O)N(C)[C@H](CC(=O)O)C(=O)N(C)[C@@H](Cc1ccccc1)C(N)=O", "note": "[Example 35, 2-[2-[2-[[2-[2-[2-[[(4S)-4-Carboxy-4-(19-carboxynonadecanoylamino)butanoyl]amino]ethoxy]ethoxy]acetyl]amino]ethoxy]ethoxy]acetyl-Asp-Phe(4-sulfomethyl)-Leu-Gly-Trp-Nle-DMeAsp-MePhe-amide] ({C20 diacid-γGlu-AEEA-AEEA}-D[Phe(4-CH2SO3H)]LGW[Nle][dNMeD][NMeF]-NH2)", "values": [{"measurement": "Plasma terminal half-life (T½)", "setting": "[2]", "value": 153, "unit": "h"}]}, {"smiles": "CCCC[C@H](NC(=O)[C@H](Cc1c[nH]c2ccccc12)NC(=O)CNC(=O)[C@H](CC(C)C)NC(=O)[C@H](Cc1ccc(CS(=O)(=O)O)cc1)NC(=O)[C@H](CC(=O)O)NC(=O)COCCOCCNC(=O)COCCOCCNC(=O)CC[C@H](NC(=O)CCCCCCCCCCCCC(=O)O)C(=O)O)C(=O)N(C)[C@H](CC(=O)O)C(=O)N(C)[C@@H](Cc1ccccc1)C(N)=O", "note": "[Example 34, 2-[2-[2-[[2-[2-[2-[[(4S)-4-Carboxy-4-(13-carboxytridecanoylamino)butanoyl]amino]ethoxy]ethoxy]acetyl]amino]ethoxy]ethoxy]acetyl-Asp-Phe(4-sulfomethyl)-Leu-Gly-Trp-Nle-DMeAsp-MePhe-amide] ({C14 diacid-γGlu-AEEA-AEEA}-D[Phe(4-CH2SO3H)]LGW[Nle][dNMeD][NMeF]-NH2)", "values": [{"measurement": "EC50", "setting": "[1]; 1321-N1 cells stably expressing CCK-1R, IP1 accumulation, average of min. three replicates, read-out: EC50 (CCK-1R)", "value": 0.21, "unit": "nM"}, {"measurement": "Plasma terminal half-life (T½)", "setting": "[2]", "value": 2, "unit": "h"}]}, {"smiles": "CCCC[C@H](NC(=O)[C@H](Cc1ccc(CS(=O)(=O)O)cc1)NC(=O)[C@H](CC(=O)O)NC(=O)COCCOCCNC(=O)COCCOCCNC(=O)CC[C@H](NC(=O)CCCCCCCCCCCCCCCCC(=O)O)C(=O)O)C(=O)NCC(=O)N[C@@H](Cc1c[nH]c2ccccc12)C(=O)N[C@@H](CCCC)C(=O)N(C)[C@H](CC(=O)O)C(=O)N(C)[C@@H](Cc1ccccc1)C(N)=O", "note": "[Example 3, 2-[2-[2-[[2-[2-[2-[[(4S)-4-Carboxy-4-(17-carboxyheptadecanoylamino)butanoyl]amino]ethoxy]ethoxy]acetyl]amino]ethoxy]ethoxy]acetyl-Asp-Phe(4-sulfomethyl)-Nle-Gly-Trp-Nle-DMeAsp-MePhe-amide] ({C18 diacid-γGlu-AEEA-AEEA}-D[Phe(4-CH2SO3H)][Nle]GW[Nle][dNMeD][NMeF]-NH2)", "values": [{"measurement": "EC50", "setting": "[1]", "value": 0.31, "unit": "nM"}]}]}
